GI50 and TGI data for six molecules are collected here from PubChem BioAssay (NCI).

Test systems include HCT-116 colon; DU-145 prostate; OVCAR-8 ovarian; K-562 leukemia; SF-295 CNS; SNB-19 CNS; OVCAR-3 ovarian; SF-268 CNS; HOP-92 NSCLC; HS 578T breast.
Holding throughout (experiment): inhibition of tumour cell growth, NCI panel, 48 h

The structures appear in SMILES notation.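 Assay format: 96-well plates, 48-hour exposure. At the GI50, growth is halved. TGI: total growth inhibition.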

`Oc1ccc(-c2nc3ccc4[nH]ncc4c3c3c2CCCC3)c2cccnc12`: the GI50 in the assay on HCT-116 colon was 0.228 µM; in the assay on DU-145 prostate, 0.5 µM; with OVCAR-8 ovarian it was 0.148 µM; with K-562 leukemia, 0.139 µM; with SF-295 CNS, 0.339 µM; in the assay with SNB-19 CNS, 0.164 µM. Besides, the GI50 in the assay on OVCAR-3 ovarian is 0.491 µM; in the assay with SF-268 CNS it was 0.239 µM; in the assay on HOP-92 NSCLC, 0.11 µM; in the assay on HS 578T breast, 0.163 µM. Also, the TGI amounted to 4.14 µM in the assay on HCT-116 colon; 8.13 µM in the assay on DU-145 prostate; 10.8 µM in the assay with OVCAR-8 ovarian; 33.3 µM with K-562 leukemia; 2.68 µM in the assay on SF-295 CNS; 13.1 µM in the assay with SNB-19 CNS. Also, the TGI in the assay on OVCAR-3 ovarian amounted to 7.3 µM; in the assay with SF-268 CNS it was 5.24 µM; in the assay on HOP-92 NSCLC it was 0.794 µM; with HS 578T breast, 2.67 µM.

For the molecule `COc1cc(/C=C/C(=O)c2cc(OC)c(OC)c(OC)c2)cc(OC)c1OC`, the GI50 in the assay on HCT-116 colon is 2.3 µM; in the assay on DU-145 prostate it was 2.03 µM; in the assay on OVCAR-8 ovarian, 3.49 µM; in the assay on K-562 leukemia it was 2.46 µM; in the assay on SF-295 CNS, 2.18 µM; in the assay on SNB-19 CNS it was 11 µM. Further, the GI50 was 1.91 µM in the assay with OVCAR-3 ovarian, 2.77 µM in the assay with SF-268 CNS, 2.53 µM with HOP-92 NSCLC and 2.76 µM in the assay on HS 578T breast. The TGI in the assay on HCT-116 colon was 8.74 µM; in the assay with DU-145 prostate, 5.95 µM; in the assay on OVCAR-8 ovarian, more than 100 µM; with K-562 leukemia it was more than 100 µM; in the assay on SF-295 CNS it was 7.85 µM; in the assay on SNB-19 CNS, 27.3 µM. Further, the TGI was 4.21 µM in the assay on OVCAR-3 ovarian, 10 µM in the assay with SF-268 CNS, 20.5 µM with HOP-92 NSCLC and 59.1 µM in the assay on HS 578T breast.

Consider `CC(C)(C)c1nnc2n(c1=O)N=CC(c1ccc(Br)cc1)S2` (stereo not given), for which the GI50 in the assay with HCT-116 colon is 23.9 µM; in the assay with DU-145 prostate, 29.3 µM; with OVCAR-8 ovarian, 34.7 µM; with K-562 leukemia, 26.5 µM; in the assay on SF-295 CNS, 12.1 µM; in the assay on SNB-19 CNS, 51.3 µM. The GI50 in the assay on OVCAR-3 ovarian was 21.8 µM; with SF-268 CNS, 42.7 µM; with HOP-92 NSCLC, 40.9 µM; in the assay on HS 578T breast it was 35.2 µM. Further, the TGI in the assay on HCT-116 colon was 50.9 µM; in the assay on DU-145 prostate it was more than 100 µM; in the assay on OVCAR-8 ovarian, more than 100 µM; in the assay on K-562 leukemia it was more than 100 µM; in the assay on SF-295 CNS it was 58.9 µM; in the assay on SNB-19 CNS, more than 100 µM. Also, the TGI in the assay on OVCAR-3 ovarian was 70.8 µM; in the assay on SF-268 CNS, more than 100 µM; in the assay on HOP-92 NSCLC it was more than 100 µM; in the assay on HS 578T breast, 91.1 µM.

Consider `COc1cc2c3c(n(C)c(=O)c2cc1OC)-c1cc2c(cc1/C3=C\[C@@H](N)CCCCN)OCO2`, for which the GI50 with HCT-116 colon is 0.329 µM; with DU-145 prostate, 0.717 µM; with OVCAR-8 ovarian, 2.66 µM; in the assay on K-562 leukemia, 2.43 µM; in the assay on SF-295 CNS, 4.3 µM; with SNB-19 CNS, 1.46 µM. Moreover, the GI50 is 3.83 µM with OVCAR-3 ovarian, 1.86 µM in the assay with SF-268 CNS, 1.7 µM in the assay on HOP-92 NSCLC and 15.9 µM with HS 578T breast. Besides, the TGI in the assay on HCT-116 colon was 14.4 µM; with DU-145 prostate, 37 µM; in the assay on OVCAR-8 ovarian it was more than 45.8 µM; in the assay on K-562 leukemia, more than 72.2 µM; in the assay on SF-295 CNS, more than 100 µM; in the assay on SNB-19 CNS, more than 100 µM. Further, the TGI in the assay on OVCAR-3 ovarian was 58.9 µM; with SF-268 CNS it was more than 42 µM; in the assay with HOP-92 NSCLC it was 29.4 µM; in the assay on HS 578T breast it was 81.8 µM.

As to `CC(C)[C@@H](CS(=O)(=O)C(C)C)N1C(=O)[C@@](C)(CC(=O)O)C[C@H](c2cccc(Cl)c2)[C@H]1c1ccc(Cl)cc1`, the GI50 is 0.454 µM with HCT-116 colon; 21.8 µM in the assay with DU-145 prostate; 13.5 µM in the assay on OVCAR-8 ovarian; 18.3 µM in the assay with K-562 leukemia; 9.09 µM with SF-295 CNS; 14.6 µM in the assay with SNB-19 CNS. In addition, the GI50 in the assay on OVCAR-3 ovarian was 12.4 µM; in the assay with SF-268 CNS, 20.8 µM; in the assay with HOP-92 NSCLC, 12.9 µM; in the assay with HS 578T breast it was 17.1 µM. For the same molecule, the TGI is 17.2 µM in the assay on HCT-116 colon; more than 100 µM in the assay with DU-145 prostate; more than 100 µM in the assay with OVCAR-8 ovarian; more than 100 µM in the assay with K-562 leukemia; 33.2 µM with SF-295 CNS; 66.5 µM with SNB-19 CNS. Moreover, the TGI in the assay with OVCAR-3 ovarian is 33 µM; in the assay with SF-268 CNS, more than 100 µM; in the assay with HOP-92 NSCLC, 36.3 µM; with HS 578T breast, 72.1 µM.

Turning to `Clc1ccc(Nc2nc3ccccc3c3occc23)cc1`, the GI50 in the assay on HCT-116 colon was 8.74 µM; in the assay with DU-145 prostate, 7.01 µM; in the assay with OVCAR-8 ovarian, 9.2 µM; in the assay with K-562 leukemia, 13.6 µM; in the assay on SF-295 CNS, 6.86 µM; with SNB-19 CNS it was 8.78 µM. Moreover, the GI50 is 5.92 µM in the assay with OVCAR-3 ovarian, 8.09 µM in the assay with SF-268 CNS, 6.53 µM in the assay on HOP-92 NSCLC and 6.95 µM with HS 578T breast. Besides, the TGI in the assay with HCT-116 colon was 15.7 µM; in the assay with DU-145 prostate, 13.5 µM; in the assay on OVCAR-8 ovarian, 20.9 µM; with K-562 leukemia, more than 50 µM; in the assay on SF-295 CNS it was 13.3 µM; with SNB-19 CNS, 16.2 µM. Also, the TGI with OVCAR-3 ovarian was 12.1 µM; in the assay with SF-268 CNS, 16.7 µM; in the assay on HOP-92 NSCLC, 13.2 µM; in the assay on HS 578T breast, 16.3 µM.
